The values that follow come from patent US12239643B2, “Therapeutic agent for inflammatory diseases, autoimmune diseases, fibrotic diseases, and cancer diseases” (MEIJI SEIKA PHARMA CO., LTD., priority 2018, dated 2025).

The test system of assay [1] is IL-17A. The assay can be described thus: Cytokine suppression using human T cells: IL-17A. Format: cell-based. To be noted: T-cell; human CD3-positive T cells, CD3 antibody, about 48 hours; read-out: IL-17A Inhibitory Activity, Human T-Cell (Test Example 5). As to the method: First, CD3-positive T cells were separated from whole blood by a magnetic bead method using an EasySep cell separation kit. Separated T cells suspended in RPMI-1640 medium were seeded on a 96-well plate previously coated with CD3 antibody (final concentration 3 μg/mL). Further, CD28 antibody (final concentration 5 ng/mL) was added as an IL-5 production stimulus and an IL-13 production stimulus. A test compound dissolved in dimethyl sulfoxide was added to each well, followed by culture at 37° C. under 5% CO2. The culture was carried out for about 18 hours for the evaluation of the amount of TNFα, and for about 48 hours for the evaluation of the amounts of IL-17A, IL-5, and IL-13. […]
The measurement results obtained by measuring the TNFα inhibitory activity (50% inhibitory concentration) of the test compounds by the above method were evaluated in accordance with the following evaluated basis; A: less than 10 nM, B: 10 nM or more and less than 100 nM, and C: 100 nM or more. In addition, the measurement results obtained by measuring the IL-17A inhibitory activity, IL-5 inhibitory activity, and IL-13 inhibitory activity (50% inhibitory concentration) of the test compounds were evaluated in accordance with the following evaluated basis; A: less than 500 nM, B: 500 nM or more and less than 5000 nM, and C: 5000 nM or more.

Assay [2] has as its system CEM-C1 (blood cancer (leukemia)). The assay can be described thus: Antitumor activity: growth inhibition of CEM-C1. Type of assay: cell-based. Particulars: 120 h; CEM-C1, culturing for 5 days; read-out: 50% growth inhibitory concentration. As to the method:
As antitumor activity, 50% growth inhibitory concentration of various cancer cells (CEM-C1 (blood cancer (leukemia)), SU-DHL-4 (blood cancer (lymphoma)), A549 (lung cancer), HCT-116 (colorectal cancer), and Daoy (brain tumor)) was calculated as follows. First, each of the above cancer cells was seeded on a 384-well plate and cultured overnight at 37° C. under 5% CO2. After that, the test compound was added at various concentrations on the next day, and each number of cells was measured after culturing for 5 days. The 50% growth inhibitory concentration was defined as the test compound concentration at which the number of cells measured is an intermediate value between the number of cells after culture for 5 days under the same conditions without the addition of the test compound and the number of cells at the time of seeding (before the start of culture). The measurement results obtained by measuring the 50% growth inhibitory concentration of the test compound by the above method were evaluated in accordance with the following evaluated basis; A: less than 10 μM, B: 10 μM or more and less than 50 μM, and C: 50 μM or more. As a result of using apremilast as the test compound, the evaluation was C in all cancer cells. On the other hand, as a result of using the compound obtained in Example 248 as the test compound, the evaluation was A in all cancer cells.

Assay [3] has as its system type II collagen-induced arthritis, DBA-1 JNCrlj mice. The assay is described as follows: Mouse CIA (arthritis) model. To be noted: oral, day 31 after the initial sensitization of type II collagen. Type of assay: in vivo. As to the method:
Evaluation was carried out using male DBA-1 JNCrlj mice (6 to 8 weeks of age). First, 150 μg/0.1 mL of type II collagen (bovine)/ACF emulsion was intradermally administered to the mouse ridge to cause primary sensitization. Twenty-one days later, 100 μg/0.1 mL of type II collagen (bovine)/AIF emulsion was similarly intradermally administered to the ridge to cause secondary sensitization. Note that, in the blank group, saline was intradermally administered to the ridge at the first sensitization and second sensitization. Next, for 10 days from the day of secondary sensitization, 0.1 to 20 mg/kg of the test compound dissolved or suspended in 0.5% w/v methylcellulose (0.5% MC) was orally administered once or twice a day.
The arthritis score of each limb was judged to be 0 to 4 by visual inspection and palpation (0: no symptoms, 1: one finger is red and swollen, 2: two or more fingers or in step is red and swollen, 3: fingers, in step, and heel are red and swollen, 4: movement of joints throughout the limb is poor), and the total of the limbs was used as the individual score, and the average score of the individual group administered with each test compound was calculated and used as the arthritis score. In addition, the foot volume (mL) of the left and right hind limbs was measured using a foot volume measuring device, and the edema rate was calculated by the following formula. Edema Rate (%)={(Left and Right Added Footpad Volume After Sensitization−Left and Right Added Footpad Volume Before Sensitization)/Left and Right Added Footpad Volume Before Sensitization}×100
The arthritis score of each test compound on day 31 after the initial sensitization of type II collagen was evaluated by the above method in accordance with the following evaluated basis; A: less than 2, B: 2 or more and less than 3, and C: 3 or more. In addition, the edema rate of each test compound on day 31 after the initial sensitization of type II collagen was evaluated in accordance with the following evaluated basis; A: less than 10%, B: 10% or more and less than 20%, and C: 20% or more. As a result of using apremilast as the test compound, the arthritis score and the edema rate were both evaluated as B. On the other hand, as a result of using the compound obtained in Example 248 as the test compound, the arthritis score and the edema rate were both evaluated as A.

Assay [4] concerns substance P-induced pruritus behavior, ICR mice. The assay is described as follows: Mouse pruritus model. Type of assay: in vivo. Particulars: oral, substance P intradermally 2 hours after administration. As to the method:
Evaluation was carried out using male ICR mice (5 to 7 weeks of age). A micro magnet was embedded under the skin of both hind limbs of the mice in advance, and the hair on the back of the mouse neck was shaved. On the day of the test, the test compound was dissolved or suspended in 0.5% w/v methylcellulose (0.5% MC) and orally administered. Two hours after administration of the test compound, 50 μL of 300 nM substance P dissolved in saline was intradermally administered to the back of the mouse neck. The blank was a non-pruritus-induced group orally administered with 0.5% MC instead of the test compound and intradermally administered with saline instead of substance P, and the pruritus induction control was a group orally administered with 0.5% MC instead of the test compound. The pruritus measurement system for small animals, MicroAct II, automatically measured pruritus behavior for 30 minutes immediately after intradermal administration.

Assay [5] relates to DSS-induced colitis, C57BL/6J mice. The assay is described as follows: DSS-induced mouse colitis model. Format: in vivo. To be noted: oral once a day, DSS in drinking water. As to the method: Evaluation was carried out using male C57BL/6J mice (7 weeks of age). The mice were allowed to freely drink dextran sodium sulfate (DSS) dissolved in water for 5 days, and then allowed to freely drink water for 4 to 5 days. The test compound was dissolved or suspended in 0.5% w/v methylcellulose (0.5% MC) and orally administered once a day from the first day. The blank was a non-inflammation-induced group orally administered with 0.5% MC instead of the test compound and allowed to freely drink water instead of DSS, and the inflammation-induced control was a group orally administered with 0.5% MC instead of the test compound. The colitis inhibitory effect was evaluated by the disease activity index (DAI) score.

A value given as a limit tells only on which side of the number the result lay.

Consider `CC(C)(O)C(F)(F)Oc1ccc(-c2nccs2)c2oc(N3CC4CC(C3)N4)nc12` [Example 248, 1-((2-(3,6-Diazabicyclo[3.1.1]heptan-3-yl)-7-(thiazol-2-yl)benzo[d]oxazol-4-yl)oxy)-1,1-difluoro-2-methylpropan-2-ol], for which the IC50 in assay [1] was below 500 nM; in assay [2], below 10 µM. The arthritis score result in assay [3] is “A (A: less than 2)”. In assay [3], the edema rate entry was “A (A: less than 10%)”. Besides, the “scratching behavior (pruritus behavior for 30 minutes)” value in assay [4] is listed as “suppressed mouse scratching behavior at a lower concentration than apremilast”. Moreover, the “disease activity index (DAI) score” value in assay [5] is “suppressed the DAI score at a lower concentration than that of apremilast”.
For `CCOc1cc([C@@H](CS(C)(=O)=O)N2C(=O)c3cccc(NC(C)=O)c3C2=O)ccc1OC` [apremilast, reference compound], the results for the IC50 in assay [1] and in assay [2] were 500 to 5000 nM and at least 50 µM, respectively. In assay [3], the arthritis score entry was “B (B: 2 or more and less than 3)”. In assay [3], the edema rate result was “B (B: 10% or more and less than 20%)”.
